Reference: patent US9927440B2, “Protein engineering” (priority 2009, dated 2018)

B1: wild-type ecRBP: wild-type E. coli ribose-binding protein (protein, listed as Escherichia coli)
chain: MKDTIALVVSTLNNPFFVSLKDGAQKEADKLGYNLVVLDSQNNPAKELANVQDLTVRGTKILLINPTDSDAVGNAVKMANQANIPVITLDRQATKGEVVSHIASDNVLGGKIAGDYIAKKAGEGAKVIELQGIAGTSAARERGEGFQQAVAAHKFNVLASQPADFDRIKGLNVMQNLLTAHPDVQAVFAQNDEMALGALRALQTAGKSDVMVVGFDGTPDGEKAVNDGKLAATIAQLPDQIGAKGVETADKVLKGEKVQAKYPVDLKLVVKQNGGSHHHHHH

Assays:
SN = SN (Staphylococcus aureus, UniProt P00644); conditions: Ca2+ and pdTp synergistic; read-out: affinity for SN in the presence of the other ligand; cited from earlier work
[1] = target: T1, Staphylococcal nuclease (SN) (Staphylococcus aureus, UniProt P00644, L118C/Q162N); format: binding; conditions: 50 μM pdTp; 35.3 °C
T1 construct: made in house; host or cells: cell-free TnT, E. coli BL21 Star (DE3) extract
Experimental: (§1) The rate of labeling of internal cysteine residues was measured by reacting 30-50 μL of ˜0.1 μM protein sample (i.e., ˜3-5 picomoles of protein) with excess IAM-biotin (1 mM unless otherwise stated) at constant temperature (25 mM MOPS, 100 mM KCl and pH 7.6). 5 μL aliquots were removed at fixed time intervals and quenched by addition of 2 μL 2M β-mercaptoethanol (Sigma; M6250). Following addition of 5 μL LDS-buffer (Invitrogen; NP0007) and heating for 2 min at 85° C., (un)labeled protein species were resolved by SDS-PAGE (Novex 4-12% Bis-Tris Gels; Invitrogen; NP0321). […] For the experiment shown in FIG. 8A, ecRBP variant L62C was modified with 1 mM IAM-biotin at 47.1° C., pH 7.6. […] Streptavidin was used to alter the electrophoretic mobility of the labeled protein (Streptavidin bands indicated by a, b, and c). […] Error bars represent the estimated uncertainty of the integrated band intensities (˜2%). For the experiment shown in FIG. 8B, SN variant L36C was labeled with IAM-biotin at 35.3° C., pH 7.6. […] At 29.3° C., 26.3° C. and 23.3° C., kint and klabel were manipulated by increasing the concentration of IAM-biotin from 1 mM to 3.16 mM.
(§2) The modulation of protein stability by binding of metals, ligands, activators, inhibitors, substrates, nucleic acid or other proteins can be used to measure binding affinities within a GUWO. For a protein with a single binding site, the free energy of ligand binding was described by
(§3) [formula] where P was the binding polynomial, [L] the total ligand concentration, and KD the apparent dissociation constant of the ligand. For proteins with multiple ligand-binding sites, P was expanded as described in Equations 21-36 below.
(§4) By thermodynamic linkage, any change in ΔGU caused predominantly by ligand binding (Scheme 1) is ΔGbind=ΔΔ^LGU=Δ^LGU−Δ^apoGU [20] where Δ^LGU and Δ^apoGU were the stability of the protein in the presence of absence of ligand respectively. Equation 20 was used to obtain apparent KD values from either the ligand dependence of ΔΔGU (by curve fitting), or from a single measurement of ΔΔGU.

[2] = target: T2, Staphylococcal nuclease (SN) (Staphylococcus aureus, UniProt P00644); format: binding; conditions: SN/L36C; 35.3 °C; from single ΔΔGU measurement; read-out: apparent KD (binary complex)
T2 construct: made in house; host or cells: cell-free TnT, E. coli BL21 Star (DE3) extract
Experimental: as §1, §2, §3, §4

[3] = literature; cited from earlier work

Molecule	Kd (SN)	increase in stability (ΔΔGU) of SN/L36C [1]	Kd [2]	Tm of wild-type [3]
Cc1cn([C@H]2C[C@H](OP(=O)(O)O)[C@@H](COP(=O)(O)O)O2)c(=O)[nH]c1=O [pdTp]	~2 µM	0.7 ± 0.2 kcal/mol	23 ± 4 µM	–
B1	–	–	–	62.6 °C
